From patent US20250276009A1, “Therapeutic use of hydrogen sulfide in frostbite injury” ([(The)] London Health Sciences Centre Research Inc., priority 2024, published 2025) come the findings set out here.

Where two headings read alike, the source gives them in different places.

Test [1] has as its system frostbite injury on the dorsal skin of C57BL/6 mice. Put plainly: Frostbite wound size / wound healing after daily topical application of H2S donor in vehicle cream. It is filed as in vivo, C57BL/6 mice (Mus musculus). The note with it: for frostbite wound size compared to vehicle-treated control mice / reduction of frostbite wound from day 4 to day 15 versus vehicle control: daily topical; for frostbite wound healing compared to vehicle control group: daily topical in vehicle cream until day 15; for reduction of frostbite wound from day 4 to day 15 versus vehicle control: 150 μM STS or 200 μmol/kg GYY4137 in hyaluronan/phosphatidylethanolamine vehicle cream. The source says: The Animal Use Committee of the University of Western Ontario approved all experimental procedures. The experimental procedures were considered as Category D from the Canadian Council of Animal Care's Categories of Invasiveness for Animal Experiments. A total of 25 […] mice aged between 8-10 weeks old were obtained from Charles River Canada (Senneville, Quebec, Canada) and housed 5 per cage under a 12-hour light/dark cycle at the Health Sciences Animal Care Facility at the University of Western Ontario (London, Ontario, Canada). Mice were randomly assigned to 5 groups being healthy control (n=5), crush control (n=5), vehicle control (n=5), 200 nM AP39 (n=5) and 1 μM AP39 (n=5).
To ease the process of skin preparation, mice were initially anesthetized with a combination of 20 mg/ml xylazine and 100 mg/mL ketamine intraperitoneally, and the dorsal fur of the animals were shaved using electric clippers from the top of the hind legs to the base of the neck. A depilatory cream was then used to remove any fur still remaining. General anesthesia was maintained by inhalation of 5% isoflurane and oxygen delivered at 400 mL/minute to minimize the time of recovery post-anesthesia. Following complete fur removal, the skin of the animal was cleaned completely of the hair removal cream using an alcohol prep pad. Next, a silicone sheet was used as a template to trace a uniform circle on the surface of the skin using a permanent marker. The circular outline on the back of the animal was used as a guide during frostbite injury (see FIGS. 1A to 1E).
The vehicle cream containing hyaluronan and phosphatidylethanolamine (referred to as HEPE) as active ingredients, was provided by Dr. Eva Turley, and allowed for delivery of AP39 to the vascularized layers of the dermis. AP39 was generously provided by Dr. Matthew Whiteman (Exeter, UK) and diluted to a stock concentration of 1 mM in DMSO. […] To prepare the cream+H2S donor compound, the H2S donor was added via micropipette combined by stirring and subsequent mixing using a vortex device to final concentrations of 200 nM, 1 µM and 150 μM.

Test [2] shares this test system. Put plainly: Histopathological scoring (H&E) of frostbite wound tissue, day 15. It is filed as in vivo, C57BL/6 mice (Mus musculus). The note with it: for progress of frostbite wound healing phase (histopathology, collective): daily topical in vehicle cream, day 15; for chronic inflammation (histological score 0-3) vs vehicle control: 200 μmol/kg GYY4137 or 150 μM STS. As for the experimental part: The formalin-fixed skin tissue samples were embedded in paraffin blocks and sectioned at 8-μm thick on a microtome and collected on SuperFrost Plus® glass slides (J1800AMNZ, Thermo Fisher Scientific Inc., Germany). Histology was performed on the tissue sections using hematoxylin and eosin (H&E) staining to visualize general tissue morphology and assess the degree of tissue injury. A modified version of a previously developed histological scoring system established by Abramov et al was used for this study. The histopathological scoring was assessed blindly by a dermatopathologist for 5 parameters of healing (acute inflammation, chronic inflammation, amount of granulation tissue, fibroblast maturation and re-epithelialization) and assigned a score as per the following scheme: 0=None; 1=Scant; 2=Moderate; 3=Abundant. Acute inflammation was scored based on the presence of neutrophils while chronic inflammation was evaluated based on the presence of plasma cells and monocytes. Fibroblast maturation was determined on the basis of shape and alignment of these cells.

The subject of a further test is cleaved caspase-3. Briefly: Immunofluorescence staining of frostbite wound tissue, day 15: apoptosis marker. It is filed as in vivo, C57BL/6 mice (Mus musculus). The note with it: daily topical in vehicle cream, day 15, vs vehicle control.
For a further test, the system named is CD31. Briefly: Immunofluorescence staining of frostbite wound tissue, day 15: vascularization and angiogenesis marker. It is filed as in vivo, C57BL/6 mice (Mus musculus). The note with it: for angiogenesis compared to vehicle control: daily topical in vehicle cream, day 15, p<0.01.
The next test deals with KI-67. Briefly: Immunofluorescence staining of frostbite wound tissue, day 15: proliferation marker. Type of test: in vivo, C57BL/6 mice (Mus musculus). As to conditions: for cell proliferation compared to vehicle control: daily topical in vehicle cream, day 15, p<0.001.
Another test deals with CD163. Put plainly: Immunofluorescence staining of frostbite wound tissue, day 15: macrophage-specific marker. It is filed as in vivo, C57BL/6 mice (Mus musculus). As to conditions: for CD163 expression: day 15.
Another test concerns fibronectin. Briefly: Immunofluorescence staining of frostbite wound tissue, day 15: granulation tissue marker. Type of test: in vivo, C57BL/6 mice (Mus musculus). The note with it: for granulation tissue formation compared to vehicle control: daily topical in vehicle cream, day 15, p<0.001; for fibronectin expression: day 15.
In another test the test system is cytokeratin. The note with it: day 15.
[3] abbreviates: 1 μM AP39 vs 200 nM AP39 and vehicle control, day 15, p<0.05.
Where [4] appears, read: 1 μM AP39, relative to 200 nM AP39, day 15, p<0.05.
Setting [5] is: 150 μM STS with Nivea, vs Nivea alone.
[6] abbreviates: 150 μM STS in Aveeno vs Aveeno without STS.
The mark [7] stands for this setting: 150 μM STS in Dove vs Dove without STS.
The mark [8] stands for this setting: 150 μM STS in Neutrogena vs Neutrogena without STS.
[9] abbreviates: 150 μM STS in Nivea vs Nivea without STS.

Protocol for CD163: (§1) Based on a previously validated model [1], 100% ceramic magnets (diameter 18.0 mm, thickness 5.0 mm, weight 4.5 g) were used to induce frostbite injury. Magnets were frozen in dry ice (−80° C.) prior to animal skin preparation. The dorsal skin of C57BL/6 mice (Mus musculus) was pinched to create a skin fold and a silicone sheet was placed underneath as illustrated in FIG. 1D. The silicone sheet acted as a barrier to prevent the mice from possible systemic hypothermia while creating a precise injury and maximizing survival. Two frozen magnets were then placed on the skin from opposite sides of the skin fold such that they adhered with the middle of the circle outline at the peak of the fold's center as described by Auerbach et al., [1] and illustrated in FIG. 1D. After 1 minute, the magnets were removed and new frozen magnets simultaneously placed in order to keep the freezing temperature of the magnets consistent and ensured that no thawing of the skin occurred. A total of 3 magnet exchange cycles occurred in order to induce frostbite injury to the mice for 3 minutes after which the skin was allowed to thaw completely. […] The animals were placed on a heating pad set to 37° C. to mitigate the risk of death due to systemic hypothermia. Upon induction of frostbite injury, the mice were randomly assigned to the following groups: vehicle cream control, 200 nM AP39 plus vehicle cream, 1 μM AP39 plus vehicle cream, 150 μM STS plus vehicle cream, 200 μmol/kg GYY4137 plus vehicle cream, and received daily topical application of vehicle cream without H2S donor, vehicle cream containing 200 nM AP39 (200 μL), vehicle cream containing 1 μM AP39 (200 μL), vehicle cream containing 150 μM STS (200 μL) and vehicle cream containing 200 μmol/kg GYY4137 (200 μL) respectively until time of sacrifice.
(§2) Post-procedure analgesia included administration of meloxicam at 1 mg/kg/day for 3 days. Another group of mice that received no frostbite injury or room temperature magnet placement served as healthy controls. All groups of mice were sacrificed by CO2 euthanasia on day 15 after frostbite induction or room temperature magnet placement, and samples of the injured dorsal skin tissue were collected and stored in 10% neutral buffered formalin for histopathological analysis. The animals were euthanized on day 15 because this is the time point at which markers of wound healing were expected to be best seen in the wound as previously reported [5].
(§3) Immunofluorescence staining was performed to detect the expression of cleaved caspase-3 (1:100; a marker for apoptosis and is being used to assess frostbite damage), CD31 (1:100; a marker of vascularization and angiogenesis, as it is found on early endothelial cells), KI-67 (1:50; a marker of proliferation, which is abundant in a healing wound as granulation tissue forms and re-epithelialization occurs), fibronectin (1:100; secreted by fibroblasts to generate granulation tissue, which is the new connective tissue that covers a wound.), cytokeratin (1:200; a marker of differentiation and proliferation of keratinocytes, which are important for re-epithelialization of a wound) and CD163 (1:200; a macrophage-specific marker during wound healing) [7, 8]. These antibodies were purchased from Abcam in Toronto, Canada to examine the degree of frostbite injury as well as important healing stages including angiogenesis, re-epithelialization, granulation tissue formation and inflammation. […]
Protocol for CD31: as §1, §2
(§4) Immunofluorescence staining was performed to detect the expression of cleaved caspase-3 (1:100; a marker for apoptosis and is being used to assess frostbite damage), CD31 (1:100; a marker of vascularization and angiogenesis, as it is found on early endothelial cells), KI-67 (1:50; a marker of proliferation, which is abundant in a healing wound as granulation tissue forms and re-epithelialization occurs), fibronectin (1:100; secreted by fibroblasts to generate granulation tissue, which is the new connective tissue that covers a wound.), cytokeratin (1:200; a marker of differentiation and proliferation of keratinocytes, which are important for re-epithelialization of a wound) and CD163 (1:200; a macrophage-specific marker during wound healing) [7, 8]. These antibodies were purchased from Abcam in Toronto, Canada to examine the degree of frostbite injury as well as important healing stages including angiogenesis, re-epithelialization, granulation tissue formation and inflammation. Following a rehydration step in xylene and decreasing series of alcohol (100%, 95%, 70% and 50%) and de-ionized water, the tissue sections were washed with 1× phosphate buffered saline (PBS) for 10 minutes.
Protocol for KI-67: as §1, §2, §3
Protocol for cleaved caspase-3: as §1
Another group of mice that received no frostbite injury or room temperature magnet placement served as healthy controls. […]
Protocol for cytokeratin: as §1
Post-procedure analgesia included administration of meloxicam at 1 mg/kg/day for 3 days. Another group of mice that received no frostbite injury or room temperature magnet placement served as healthy controls. All groups of mice were sacrificed by CO2 euthanasia on day 15 after frostbite induction or room temperature magnet placement, and samples of the injured dorsal skin tissue were collected and stored in 10% neutral buffered formalin for histopathological analysis. The animals were euthanized on day 15 because this is the time point at which markers of wound healing were expected to be best seen in the wound as previously reported [5]. […]
Protocol for fibronectin: as §1, §2, §4

Turning to `O=C(CCCCCCCCC[P+](c1ccccc1)(c1ccccc1)c1ccccc1)Oc1ccc(-c2cc(=S)ss2)cc1.[Br-]` [AP39, (10-oxo-10-(4-(3-thioxo-3H-1,2-dithiol-5-yl)phenoxy)decyl)triphenylphosphonium bromide], the “frostbite wound size compared to vehicle-treated control mice” value is “progressively reduced wound size” in test [1] (200 nM AP39 in vehicle cream containing hyaluronan and phosphatidylethanolamine, day 4 to day 15); “progressively reduced wound size” in test [1] (1 μM AP39 in vehicle cream containing hyaluronan and phosphatidylethanolamine, day 4 to day 15). In test [1], the “frostbite wound healing compared to vehicle control group” value is listed as “improved wound healing”. Also, the “chronic inflammation (histological score 0-3)” value is given as “did not change” in test [2] (200 nM AP39, day 15, p>0.05) and “did not change” in test [2] (1 μM AP39, day 15, p>0.05). Further, the “fibroblast maturation (histological score 0-3)” value in test [2] (200 nM AP39 vs 1 μM AP39 and vehicle control, day 15, p<0.05) was “highest”. In test [2] (setting [3]), the “acute inflammation (histological score 0-3)” value is listed as “significantly greater”. Further, the “amount of granulation tissue (histological score 0-3)” value in test [2] (setting [3]) is given as “markedly increased”. The “wound re-epithelialization (histological score 0-3)” value in test [2] (AP39 (200 nM and 1 μM) vs vehicle control, day 15, p>0.05) was “increased wound re-epithelialization (epithelial restitution) albeit not significantly different”. Besides, in test [2], the “progress of frostbite wound healing phase (histopathology, collective)” value (shortened to “progress … (histopathology, collective)”) is “hastened frostbite wound healing from inflammatory to proliferative phase”. The “apoptosis in frostbite injury (cleaved caspase-3 expression)” value (shortened to “apoptosis in frostbite injury”) in the test on cleaved caspase-3 is listed as “no effect”. The CD31 expression entry with CD31 (200 nM AP39, day 15, p<0.05) is recorded as “markedly expressed”; with CD31 (setting [4]), “significantly reduced”. Further, the “angiogenesis compared to vehicle control” value with CD31 is “improved”. In addition, the KI-67 expression result in the test on KI-67 (200 nM AP39, day 15, p<0.05) is listed as “markedly expressed”; in the test on KI-67 (setting [4]), “significantly reduced”. Besides, the “cell proliferation compared to vehicle control” value with KI-67 is “improved”. Besides, the “CD163 expression (M2-like anti-inflammatory macrophages)” value with CD163 (200 nM AP39, day 15) is listed as “increased anti-inflammatory activity”. The “fibronectin expression compared to vehicle control mice” value was “significantly increased expression” in the test on fibronectin (200 nM AP39, day 15) and “significantly increased expression” in the test with fibronectin (1 μM AP39, day 15). Also, the “granulation tissue formation compared to vehicle control” value with fibronectin was “improved”.

Consider `C1COCCN1.COc1ccc(P(=S)(S)N2CCOCC2)cc1` (centres unmarked) [GYY4137], for which, in test [1], the “reduction of frostbite wound from day 4 to day 15 versus vehicle control” value is “slightly smaller than that of the vehicle control” and the “frostbite wound healing compared to vehicle control group” value is on record as “improved wound healing”. The “chronic inflammation (histological score 0-3) vs vehicle control” value in test [2] (day 15, p>0.05) is “did not show significant difference”. The “progress … (histopathology, collective)” value in test [2] is reported as “hastened frostbite wound healing from inflammatory to proliferative phase”. Besides, the “apoptosis in frostbite injury” value in the test with cleaved caspase-3 is recorded as “no effect”. In addition, the “angiogenesis compared to vehicle control” value with CD31 is given as “improved”. Moreover, the “cell proliferation compared to vehicle control” value in the test on KI-67 is on record as “improved”. Also, the “granulation tissue formation compared to vehicle control” value with fibronectin is recorded as “improved”.

Consider `O=S([O-])([O-])=S.[Na+].[Na+]` [STS, sodium thiosulfate], for which the “wound size compared to the corresponding vehicle control without STS” value in test [1] (150 μM STS in commercially available creams (Aveeno, Dove, Neutrogena, Nivea), day 4 to day 15) is “progressively reduced wound size”. Also, the “reduction of frostbite wound from day 4 to day 15 versus vehicle control” value in test [1] is given as “slightly smaller than that of the vehicle control”. In addition, the “wound size, day 15” value in test [1] (150 μM STS with Aveeno, vs Aveeno alone) was “reduced wound size”; in test [1] (150 μM STS with Dove, vs Dove alone), “reduced wound size”; in test [1] (setting [5]) it was “reduced wound size”. In test [1] (setting [5]), the “wound size, day 4” value was “reduced wound size”. Moreover, in test [1] (STS via Aveeno and Nivea creams compared to Dove and Neutrogena), the “wound healing, comparison of delivery creams” value was “improved wound healing compared to Dove® and Neutrogena®”. For the same molecule, the “frostbite wound healing compared to vehicle control group” value in test [1] is reported as “improved wound healing”. Moreover, the “chronic inflammation (histological score 0-3) vs vehicle control” value in test [2] (day 15, p>0.05) is “did not show significant difference”. Also, the “progress … (histopathology, collective)” value in test [2] is “hastened frostbite wound healing from inflammatory to proliferative phase”. Further, the “apoptosis in frostbite injury” value in the test with cleaved caspase-3 is listed as “no effect”. Also, the CD31 expression result in the test on CD31 (150 μM STS in Aveeno vs Aveeno without STS, day 15) is listed as “significant upregulation”; in the test on CD31 (150 μM STS in Dove vs Dove without STS, day 15), “significant upregulation”; with CD31 (150 μM STS in Neutrogena vs Neutrogena without STS, day 15), “No significant change”; in the test on CD31 (150 μM STS in Nivea vs Nivea without STS, day 15), “significant upregulation”. In the test with CD31, the “angiogenesis compared to vehicle control” value is “improved”. The “cell proliferation compared to vehicle control” value in the test on KI-67 is reported as “improved”. Further, the CD163 expression result in the test on CD163 (setting [6]) is reported as “significant increase”; in the test on CD163 (setting [7]), “significant increase”; in the test on CD163 (setting [8]), “decrease in CD163 expression albeit not significant”; in the test with CD163 (setting [9]), “significant increase”. Further, the fibronectin expression entry with fibronectin (setting [6]) is on record as “significantly increased”; with fibronectin (setting [7]), “did not increase fibronectin expression significantly”; with fibronectin (setting [8]) it was “did not increase fibronectin expression significantly”; in the test with fibronectin (setting [9]), “significantly increased”. Besides, the “granulation tissue formation compared to vehicle control” value with fibronectin was “improved”. Also, the cytokeratin expression entry in the test on cytokeratin (setting [6]) was “significantly increased”; with cytokeratin (setting [7]), “No significant change”; in the test on cytokeratin (setting [8]), “significantly increased”; in the test on cytokeratin (setting [9]), “significantly increased”.
